From patent US20210122730A1, “GLUCOCORTICOID RECEPTOR MODULATORS” (ORIC Pharmaceuticals, Inc., priority 2017, published 2021)
pIC50: −log10 of the molar value.

Target: T1, GR (Homo sapiens, UniProt P04150)
T1 construct: expressed in transfected cells; host or cells: CHO-K1
T1 sequence (P04150 1-777): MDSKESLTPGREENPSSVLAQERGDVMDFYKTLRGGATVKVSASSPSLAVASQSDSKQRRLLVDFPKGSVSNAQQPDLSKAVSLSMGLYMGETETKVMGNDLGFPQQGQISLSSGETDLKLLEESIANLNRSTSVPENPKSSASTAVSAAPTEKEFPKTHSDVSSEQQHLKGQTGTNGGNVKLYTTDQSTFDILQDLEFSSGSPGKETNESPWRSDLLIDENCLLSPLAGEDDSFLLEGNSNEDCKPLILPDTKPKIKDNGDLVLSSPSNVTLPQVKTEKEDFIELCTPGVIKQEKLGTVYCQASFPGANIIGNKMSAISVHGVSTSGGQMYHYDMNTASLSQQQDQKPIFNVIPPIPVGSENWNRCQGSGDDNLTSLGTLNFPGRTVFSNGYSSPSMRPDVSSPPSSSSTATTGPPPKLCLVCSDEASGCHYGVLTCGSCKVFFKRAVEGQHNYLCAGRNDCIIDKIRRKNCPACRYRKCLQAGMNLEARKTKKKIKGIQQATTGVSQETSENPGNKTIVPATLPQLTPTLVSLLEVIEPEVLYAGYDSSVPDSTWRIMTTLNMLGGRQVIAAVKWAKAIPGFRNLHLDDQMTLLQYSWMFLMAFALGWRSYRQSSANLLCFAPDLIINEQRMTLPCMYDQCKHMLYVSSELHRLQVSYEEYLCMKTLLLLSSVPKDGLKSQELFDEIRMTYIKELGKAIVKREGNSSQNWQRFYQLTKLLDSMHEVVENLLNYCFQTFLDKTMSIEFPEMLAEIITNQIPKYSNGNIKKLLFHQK
Assay: In Vitro GR Luciferase Reporter Assay (antagonist mode, CHO-K1-GR-MMTV-Luc reporter cells)
Type: cell-based
Settings: antagonist mode, 10 nM Dexamethasone
Procedure, shortened: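 Antagonist mode: compounds (8 serial 1:5 dilutions) added to GR-MMTV-luciferase CHO-K1 reporter cells co-exposed to 10 nM dexamethasone final, in phenol red-free DMEM plus 10% CSS. After roughly 18-24 h at 37° C, OneGlo luminescence read and IC50 calculated.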

SMILES	pIC50
CCn1ncc(S(=O)(=O)N(C)[C@H]2CCC3=Cc4c(cnn4-c4ccc(F)cc4)C[C@]3(C(=O)c3ccc(C(F)(F)F)cn3)C2)n1 [Example 129, 2-ethyl-N-((4aS,6S)-1-(4-fluorophenyl)-4a-(5-(trifluoromethyl)picolinoyl)-4,4a,5,6,7,8-hexahydro-1H-benzo[f]indazol-6-yl)-N-methyl-2H-1,2,3-triazole-4-sulfonamide]	≥ 7.00
CCn1ncc(S(=O)(=O)N(C)[C@H]2CCC3=Cc4c(cnn4-c4ccc(F)cc4)C[C@]3(C(=O)c3ccc(C4CC4)cn3)C2)n1 [Example 130, N-((4aS,6S)-4a-(5-cyclopropylpicolinoyl)-1-(4-fluorophenyl)-4,4a,5,6,7,8-hexahydro-1H-benzo[f]indazol-6-yl)-2-ethyl-N-methyl-2H-1,2,3-triazole-4-sulfonamide]	≥ 7.00
CCN([C@H]1CCC2=Cc3c(cnn3-c3ccc(F)cc3)C[C@]2(C(=O)c2cc(C(F)(F)F)ccn2)C1)S(=O)(=O)c1cnn(CC)c1 [Example 132, N,1-diethyl-N-((4aS,6S)-1-(4-fluorophenyl)-4a-(4-(trifluoromethyl)picolinoyl)-4,4a,5,6,7,8-hexahydro-1H-benzo[f]indazol-6-yl)-1H-pyrazole-4-sulfonamide]	≥ 7.00
CN([C@H]1CCC2=Cc3c(cnn3-c3ccc(F)cc3)C[C@]2(C(=O)c2nccs2)C1)S(=O)(=O)c1cnn(C)c1 [Example 133, N-((4aS,6S)-1-(4-fluorophenyl)-4a-(thiazole-2-carbonyl)-4,4a,5,6,7,8-hexahydro-1H-benzo[f]indazol-6-yl)-N,1-dimethyl-1H-pyrazole-4-sulfonamide]	≥ 7.00
CN([C@H]1CCC2=Cc3c(cnn3-c3ccc(F)cc3)C[C@]2(C(=O)c2ccc(C3CC3)cn2)C1)S(=O)(=O)c1ccn(C)n1 [Example 135, N-((4aS,6S)-4a-(5-cyclopropylpicolinoyl)-1-(4-fluorophenyl)-4,4a,5,6,7,8-hexahydro-1H-benzo[f]indazol-6-yl)-N,1-dimethyl-1H-pyrazole-3-sulfonamide]	≥ 7.00
CCN([C@H]1CCC2=Cc3c(cnn3-c3ccc(F)cc3)C[C@]2(C(=O)c2ccc(C3CC3)cn2)C1)S(=O)(=O)c1cnn(C)c1 [Example 136, N-((4aS,6S)-4a-(5-cyclopropylpicolinoyl)-1-(4-fluorophenyl)-4,4a,5,6,7,8-hexahydro-1H-benzo[f]indazol-6-yl)-N-ethyl-1-methyl-1H-pyrazole-4-sulfonamide]	≥ 7.00
CN(c1ccc(F)cc1)S(=O)(=O)[C@H]1CCC2=Cc3c(cnn3-c3ccc(F)cc3)C[C@]2(C(=O)c2ccccn2)C1 [Example 137, (4aS,6S)-N,1-bis(4-fluorophenyl)-N-methyl-4a-picolinoyl-4,4a,5,6,7,8-hexahydro-1H-benzo[f]indazole-6-sulfonamide]	≥ 7.00
CN([C@H]1CCC2=Cc3c(cnn3-c3ccc(F)cc3)C[C@]2(C(=O)c2nccs2)C1)S(=O)(=O)c1ccn(C)n1 [Example 139, N-((4aS,6S)-1-(4-fluorophenyl)-4a-(thiazole-2-carbonyl)-4,4a,5,6,7,8-hexahydro-1H-benzo[f]indazol-6-yl)-N,1-dimethyl-1H-pyrazole-3-sulfonamide]	≥ 7.00
Cn1cc(S(=O)(=O)N(C2CC2)[C@H]2CCC3=Cc4c(cnn4-c4ccc(F)cc4)C[C@]3(C(=O)c3ccc(C4CC4)cn3)C2)cn1 [Example 141, N-cyclopropyl-N-((4aS,6S)-4a-(5-cyclopropylpicolinoyl)-1-(4-fluorophenyl)-4,4a,5,6,7,8-hexahydro-1H-benzo[f]indazol-6-yl)-1-methyl-1H-pyrazole-4-sulfonamide]	≥ 7.00
CN([C@H]1CCC2=Cc3c(cnn3-c3ccc(F)cc3)C[C@]2(C(=O)c2nccs2)C1)S(=O)(=O)c1ccc(Cl)cc1 [Example 143, 4-chloro-N-((4aS,6S)-1-(4-fluorophenyl)-4a-(thiazole-2-carbonyl)-4,4a,5,6,7,8-hexahydro-1H-benzo[f]indazol-6-yl)-N-methylbenzenesulfonamide]	≥ 7.00
CCN([C@H]1CCC2=Cc3c(cnn3-c3ccc(F)cc3)C[C@]2(C(=O)c2cc(C(F)(F)F)ccn2)C1)S(=O)(=O)c1cnn(C)n1 [Example 145, N-ethyl-N-((4aS,6S)-1-(4-fluorophenyl)-4a-(4-(trifluoromethyl)picolinoyl)-4,4a,5,6,7,8-hexahydro-1H-benzo[f]indazol-6-yl)-2-methyl-2H-1,2,3-triazole-4-sulfonamide]	≥ 7.00
CN([C@H]1CCC2=Cc3c(cnn3-c3ccc(F)cc3)C[C@]2(C(=O)c2ccc(C3CC3)cn2)C1)S(=O)(=O)c1ccc(Cl)cc1 [Example 146, 4-chloro-N-((4aS,6S)-4a-(5-cyclopropylpicolinoyl)-1-(4-fluorophenyl)-4,4a,5,6,7,8-hexahydro-1H-benzo[f]indazol-6-yl)-N-methylbenzenesulfonamide]	≥ 7.00
Cn1ccc(S(=O)(=O)N(C2CC2)[C@H]2CCC3=Cc4c(cnn4-c4ccc(F)cc4)C[C@]3(C(=O)c3nccs3)C2)n1 [Example 147, N-cyclopropyl-N-((4aS,6S)-1-(4-fluorophenyl)-4a-(thiazole-2-carbonyl)-4,4a,5,6,7,8-hexahydro-1H-benzo[f]indazol-6-yl)-1-methyl-1H-pyrazole-3-sulfonamide]	≥ 7.00
CN([C@H]1CCC2=Cc3c(cnn3-c3ccc(F)cc3)C[C@]2(C(=O)c2ncc(C3CC3)s2)C1)S(=O)(=O)c1cnn(C)n1 [Example 148, N-((4aS,6S)-4a-(5-cyclopropylthiazole-2-carbonyl)-1-(4-fluorophenyl)-4,4a,5,6,7,8-hexahydro-1H-benzo[f]indazol-6-yl)-N,2-dimethyl-2H-1,2,3-triazole-4-sulfonamide]	≥ 7.00
CN([C@H]1CCC2=Cc3c(cnn3-c3ccc(F)cc3)C[C@]2(C(=O)c2cc(C3CC3)ccn2)C1)S(=O)(=O)c1cnn(C)n1 [Example 149, N-((4aS,6S)-4a-(4-cyclopropylpicolinoyl)-1-(4-fluorophenyl)-4,4a,5,6,7,8-hexahydro-1H-benzo[f]indazol-6-yl)-N,2-dimethyl-2H-1,2,3-triazole-4-sulfonamide]	≥ 7.00
CN([C@H]1CCC2=Cc3c(cnn3-c3ccc(F)cc3)C[C@]2(C(=O)c2nc(C3CC3)cs2)C1)S(=O)(=O)c1cnn(C)n1 [Example 150, N-((4aS,6S)-4a-(4-cyclopropylthiazole-2-carbonyl)-1-(4-fluorophenyl)-4,4a,5,6,7,8-hexahydro-1H-benzo[f]indazol-6-yl)-N,2-dimethyl-2H-1,2,3-triazole-4-sulfonamide]	≥ 7.00
CN([C@H]1CCC2=Cc3c(cnn3-c3ccc(F)cc3)C[C@]2(C(=O)c2ncc(C(F)(F)F)s2)C1)S(=O)(=O)c1cnn(C)n1 [Example 151, N-((4aS,6S)-1-(4-fluorophenyl)-4a-(5-(trifluoromethyl)thiazole-2-carbonyl)-4,4a,5,6,7,8-hexahydro-1H-benzo[f]indazol-6-yl)-N,2-dimethyl-2H-1,2,3-triazole-4-sulfonamide]	≥ 7.00
Cn1ccc(S(=O)(=O)N(C2CC2)[C@H]2CCC3=Cc4c(cnn4-c4ccc(F)cc4)C[C@]3(C(=O)c3ccc(C4CC4)cn3)C2)n1 [Example 152, N-cyclopropyl-N-((4aS,6S)-4a-(5-cyclopropylpicolinoyl)-1-(4-fluorophenyl)-4,4a,5,6,7,8-hexahydro-1H-benzo[f]indazol-6-yl)-1-methyl-1H-pyrazole-3-sulfonamide]	≥ 7.00
CCN([C@H]1CCC2=Cc3c(cnn3-c3ccc(F)cc3)C[C@]2(C(=O)c2ncc(C3CC3)s2)C1)S(=O)(=O)c1cnn(C)c1 [Example 154, N-((4aS,6S)-4a-(5-cyclopropylthiazole-2-carbonyl)-1-(4-fluorophenyl)-4,4a,5,6,7,8-hexahydro-1H-benzo[f]indazol-6-yl)-N-ethyl-1-methyl-1H-pyrazole-4-sulfonamide]	≥ 7.00
CCn1ccc(S(=O)(=O)N(C)[C@H]2CCC3=Cc4c(cnn4-c4ccc(F)cc4)C[C@]3(C(=O)c3cc(C(F)(F)F)ccn3)C2)n1 [Example 157, 1-ethyl-N-((4aS,6S)-1-(4-fluorophenyl)-4a-(4-(trifluoromethyl)picolinoyl)-4,4a,5,6,7,8-hexahydro-1H-benzo[f]indazol-6-yl)-N-methyl-1H-pyrazole-3-sulfonamide]	≥ 7.00
CCn1cc(S(=O)(=O)N(C2CC2)[C@H]2CCC3=Cc4c(cnn4-c4ccc(F)cc4)C[C@]3(C(=O)c3cc(C(F)(F)F)ccn3)C2)cn1 [Example 158, N-cyclopropyl-1-ethyl-N-((4aS,6S)-1-(4-fluorophenyl)-4a-(4-(trifluoromethyl)picolinoyl)-4,4a,5,6,7,8-hexahydro-1H-benzo[f]indazol-6-yl)-1H-pyrazole-4-sulfonamide]	≥ 7.00
